Where a name gives a salt, the structure may show the parent alone. Read-outs that look alike come from different tables or passages of the source.
What was measured:
[1] = system: Bacillus subtilis ATCC 6 633; experiment: MIC, dilution in liquid medium; type: cell-based
Protocol: (§1) The method used was a dilution of a liquid medium where a series of tubes received the same quantity of a sterile nutritive media and increasing doses of the test compounds were placed therein. Then each tube was seeded with a bacterial strain and was incubated for 24 to 48 hours at 37° C. in an oven. The increasing inhibition was determined by transillulumination to determine the minimum inhibiting concentration (MIC in μg/ml) and the results are reported in the following Tables.

[2] = system: Enterobacter cloacae 681; experiment: MIC, dilution in liquid medium; type: cell-based
Protocol: as §1

[3] = system: Escherichia Coli Resistant Gentamycine, Tobramycine R 55 123 D; experiment: MIC, dilution in liquid medium; type: cell-based; settings: read-out: MIC
Protocol: as §1

[4] = system: Escherichia Coli Resistant Tetracycline ATCC 11 303; experiment: MIC, dilution in liquid medium; type: cell-based
Protocol: as §1

[5] = system: Escherichia Coli sensitive Tetracycline ATCC 9 637; experiment: MIC, dilution in liquid medium; type: cell-based
Protocol: as §1

[6] = system: Klebsiella pneumoniae 2 536 Resistant Gentamycine; experiment: MIC, dilution in liquid medium; type: cell-based
Protocol: as §1

[7] = system: Klebsiella pneumoniae Exp. 52 145; experiment: MIC, dilution in liquid medium; type: cell-based; settings: read-out: MIC
Protocol: as §1

[8] = system: Proteus mirabilis (indol-) A 235; experiment: MIC, dilution in liquid medium; type: cell-based
Protocol: as §1

[9] = system: Providencia Du 48; experiment: MIC, dilution in liquid medium; type: cell-based
Protocol: as §1

[10] = system: Pseudomonas 8951 Resistant Gentamycine Tetracycline; experiment: MIC, dilution in liquid medium; type: cell-based
Protocol: as §1

[11] = system: Salmonella typhimurium 420; experiment: MIC, dilution in liquid medium; type: cell-based; settings: Salmonella enterica, read-out: MIC
Protocol: as §1

[12] = system: Serratia Resistant Gentamycine 2 532; experiment: MIC, dilution in liquid medium; type: cell-based; settings: read-out: MIC
Protocol: as §1

[13] = system: Staphylococcus aureus ATCC 6 538 Pen Sensitive; experiment: MIC, dilution in liquid medium; type: cell-based
Protocol: as §1

[14] = system: Staphylococcus aureus UC 1 128 Pen-resistant; experiment: MIC, dilution in liquid medium; type: cell-based
Protocol: as §1

[15] = system: Staphylococcus aureus exp.n°54 146; experiment: MIC, dilution in liquid medium; type: cell-based
Protocol: as §1

[16] = system: Streptococcus pyogenes A 561; experiment: MIC, dilution in liquid medium; type: cell-based
Protocol: as §1

[17] = system: Escherichia coli TO26 B6; experiment: Experimental infection with Escherichia coli TO26 B6 in mice; type: in vivo; settings: for No. of mice surviving 8th day: subcutaneous 1, 5 and 24 hours after infection, control 0/10; for Mortality after hours: subcutaneous, group of 10 mice
Protocol: The product of Example 1 was studied for its activity against an experimental infection of Escherichia coil in groups of 10 male mice weighing about 21.5 g. The mice received an intraperitoneal injection of 0.5 ml of a 24 hour old culture in a nutritive media of Escherichia Coli TO26 B6 of the Pasteur Institute diluted 1/5 with distilled water. The test product was administered subcutaneously 1 hour and 5 and 24 hours after the infection and the number of dead was determined after 8 days.

[18] = system: Proteus mirabilis A 235; experiment: Experimental infection of Proteus mirabilis in mice; type: in vivo; settings: for Mice surviving on 8th day: subcutaneous 1, 5 and 24 hours after infection, controls 0/10; for Mortality after hours: subcutaneous, group of 10 mice
Protocol: Groups of 10 mice with an average weight of 21.5 g received intraperitoneally 0.5 ml of a 24 hour old culture in oxoid bouillon of Proteus mirabilis A 235 diluted 1/10 with distilled water. The mice then received subcutaneously the compound of Example 1 one hour and 5 and 24 hours after the infection and the results are reported in the following Table.

[19] = system: Proteus Morganii A236; experiment: Experimental infection of Proteus Morganii A236 in mice; type: in vivo; settings: for Mice surviving on 8th day: cutaneously 1,5 and 24 hours after injection, controls 0/10; for Mortality after hours: cutaneously, group of 10 mice
Protocol: The activity of the product of Example 1 against an experimental infection of Proteus Morganii […] was determined in groups of 10 mice weighing an average of 20.5 g which were infected by intraperitoneal injection of 0.5 ml of a culture thereof in a medium with a pH of 7 diluted to one tenth.

[20] = system: Klebsiella Pneumonia No. 52,145; experiment: Experimental infection of Klebsiella Pneumoniae in mice; type: in vivo; settings: for Mice surviving on 8th day: by injection 1,5 and 24 hours after infection, controls 0/10; for Mortality after hours: by injection, group of 10 mice
Protocol: The activity of the compound of Example 1 against an experimental infection of Klebsiella Pneumonia No. 52,145 was determined on groups of 10 mice having an average weight of 21 g by intraperitoneal injection of 0.5 ml of a culture thereof with a pH of 6 diluted to 1/1500.

SMILES: CC(=O)OCC1=C(C(=O)O)N2C(=O)C(NC(=O)/C(=N\OCCSC(=N)N)c3csc(N)n3)C2SC1 (stereo not drawn) [Example 1, Trifluoroacetate of the syn isomer of 3-acetoxymethyl-7-[2-(2-amino-4-thiazolyl)-2-(2-aminoiminomethylthio-ethoxyimino)acetamido]-ceph-3-eme-4-carboxylic acid]
- MIC ([1]; ATCC6, 24 h): 1 µg/mL
- MIC ([1]; ATCC6, 48 h): 1 µg/mL
- MIC ([2]; Enterobacter cloacae, 681, 24 h): 2 µg/mL
- MIC ([2]; Enterobacter cloacae, 681, 48 h): 2 µg/mL
- MIC ([3]; 24 h): 0.5 µg/mL
- MIC ([3]; 48 h): 0.5 µg/mL
- MIC ([4]; ATCC11, 24 h): 0.05 µg/mL
- MIC ([4]; ATCC11, 48 h): 0.05 µg/mL
- MIC ([5]; ATCC9, 24 h): 1 µg/mL
- MIC ([5]; ATCC9, 48 h): 1 µg/mL
- MIC ([6]; 24 h): 1 µg/mL
- MIC ([6]; 48 h): 2 µg/mL
- MIC ([7]; EXP.52145, 24 h): 0.5 µg/mL
- MIC ([7]; EXP.52145, 48 h): 0.5 µg/mL
- MIC ([8]; 24 h): 0.1 µg/mL
- MIC ([8]; 48 h): 0.1 µg/mL
- MIC ([9]; DU48, 24 h): 2 µg/mL
- MIC ([9]; DU48, 48 h): 3 µg/mL
- MIC ([10]; 24 h): 20 µg/mL
- MIC ([10]; 48 h): 20 µg/mL
- MIC ([11]; 24 h): 0.5 µg/mL
- MIC ([11]; 48 h): 0.5 µg/mL
- MIC ([12]; 24 h): 0.5 µg/mL
- MIC ([12]; 48 h): 0.5 µg/mL
- MIC ([13]; ATCC6, 24 h): 2 µg/mL
- MIC ([13]; ATCC6, 48 h): 2 µg/mL
- MIC ([14]; UC1, 24 h): 2 µg/mL
- MIC ([14]; UC1, 48 h): 3 µg/mL
- MIC ([15]; 24 h): 2 µg/mL
- MIC ([15]; 48 h): 2 µg/mL
- MIC ([16]; A561, 24 h): 0.02 µg/mL
- MIC ([16]; A561, 48 h): 0.02 µg/mL
- No. of mice surviving 8th day ([17]; dose 0.1 mg): 6/10
- Mortality after hours ([17]; dose 0.1 mg, 21H30): 1
- Mortality after hours ([17]; dose 0.1 mg, 24 H): 1
- Mortality after hours ([17]; dose 0.1 mg, 28 H): 1
- Mortality after hours ([17]; dose 0.1 mg, 36 H): 1
- No. of mice surviving 8th day ([17]; dose 0.25 mg): 10/10
- Mice surviving on 8th day ([18]; dose 0,1 mg): 10/10
- Mice surviving on 8th day ([18]; dose 0,05 mg): 10/10
- Mice surviving on 8th day ([18]; dose 0,5 mg): 10/10
- Mice surviving on 8th day ([18]; dose 0,25 mg): 10/10
- Mice surviving on 8th day ([18]; dose 0,025 mg): 7/10
- Mortality after hours ([18]; dose 0,025 mg, 23H45): 1
- Mortality after hours ([18]; dose 0,025 mg, 25 H): 1
- Mortality after hours ([18]; dose 0,025 mg, 31 H): 1
- Mice surviving on 8th day ([19]; dose 0,1 mg): 10/10
- Mice surviving on 8th day ([19]; dose 0,05 mg): 2/10
- Mice surviving on 8th day ([19]; dose 0,5 mg): 10/10
- Mortality after hours ([19]; dose 0,05 mg, 4H): 1
- Mortality after hours ([19]; dose 0,05 mg, 6H15): 1
- Mortality after hours ([19]; dose 0,05 mg, 6H): 2
- Mortality after hours ([19]; dose 0,05 mg, 21H10): 3
- Mortality after hours ([19]; dose 0,05 mg, 45H20): 1
- Mice surviving on 8th day ([19]; dose 0,25 mg): 10/10
- Mice surviving on 8th day ([20]; dose 0,1 mg): 6/10
- Mortality after hours ([20]; dose 0,1 mg, 4 J): 1
- Mortality after hours ([20]; dose 0,1 mg, 5 J): 1
- Mortality after hours ([20]; dose 0,1 mg, 6 J): 1
- Mortality after hours ([20]; dose 0,1 mg, 8 J): 1
- Mice surviving on 8th day ([20]; dose 0,5 mg): 9/10
- Mortality after hours ([20]; dose 0,5 mg, 6 J): 1
- Mice surviving on 8th day ([20]; dose 0,25 mg): 8/10
- Mortality after hours ([20]; dose 0,25 mg, 4 J): 1
- Mortality after hours ([20]; dose 0,25 mg, 6 J): 1
- Mice surviving on 8th day ([20]; dose 1 mg): 10/10
- Mice surviving on 8th day ([20]; dose 1,5 mg): 10/10

Reference: US4426519A, “7-(2-Amino-4-thiazolyl)-acetamido cephalosporanic acids” (Roussel Uclaf, priority 1979, dated 1984)
